Measured values published in patent publication US20190211102A1, “METHODS AND COMBINATION THERAPY TO TREAT CANCER” (Array BioPharma Inc., priority 2018, published 2019).
Entries after “also recorded” stand apart in the source; their conditions may differ.

Experiments:
[1] = plasma pharmacokinetics of ARRY-382, Phase 1b Part A (with pembrolizumab); assay type: in vivo, human
CSF-1 = assay: pharmacodynamic analysis of circulating biomarkers: CSF-1 levels, Part A; assay type: in vivo, human
advanced solid tumors = assay: preliminary antitumor activity by RECIST version 1.1 and irRC, Part A; assay type: in vivo, human; conditions: ARRY-382 300 mg cohort, with pembrolizumab
Text: Key eligibility criteria for Part A was adult patients with confirmed diagnosis of: bladder cancer, head and neck squamous cell cancer, ovarian cancer, triple-negative breast cancer, gastric cancer, metastatic colorectal cancer, or pancreatic ductal adenocarcinoma, refractory to standard of car, with no standard therapy available or for which the patient refused standard therapy; advanced, unresectable, or metastatic melanoma with or without prior treatment; or advanced/metastatic PD-L1-positive non-small cell lung cancer (NSCLC) meeting any of the following criteria: (1) tumors without EGFR or ALK genomic aberrations in patients who had received no prior systemic chemotherapy or had disease progression on or after platinum-containing chemotherapy, or (2) tumors with EGFR or ALK genomic aberrations in patients with disease progression on a US Food and Drug Administration-approved therapy for EGFR or ALK genomic tumor aberrations. Patients who received prior immune checkpoint inhibitor treatment were excluded from the study.
DLTs were determined using standard definitions.

[2] = Bendell et al. 2013, cited from earlier work
[3] = Phase 1b dose escalation (Part A): DLTs, adverse events, RP2D of ARRY-382 with pembrolizumab
Experimental: DLTs were determined using standard definitions. Adverse events (AEs) and serious AEs were collected to analyze the safety and tolerability of treatment. […] Blood samples for pharmacodynamics analysis of circulating biomarkers, including CSF-1, were collected on days 1, 8, and 15 of cycle 1 and on day 1 of all subsequent cycles.

[4] = Part A, ARRY-382 + pembrolizumab

## Cc1cccc(Cn2nc(C3CC3)c3c(NC(=O)c4cnc5cc(OCCN6CCN(C)CC6)ccn45)cccc32)n1 [ARRY-382, N-(3-cyclopropyl-1-((6-methylpyridin-2-yl)methyl)-1H-indazol-4-yl)-7-(2-(4-methylpiperazin-1-yl)ethoxy)imidazo[1,2-a]pyridine-3-carboxamide]
[1]; 300 mg vs 400 mg QD
  exposure in the 300 mg versus 400 mg dose cohorts: similar
[1]; 200, 300, 400 mg QD with pembrolizumab
  dose proportionality of ARRY-382 exposure: generally dose-proportional
[1]; patients, Part A
  PK interactions between ARRY-382 and pembrolizumab: no evidence of any PK interactions
CSF-1; 300 mg vs 400 mg cohorts
  average maximum increase in CSF-1 levels from baseline, 300 mg versus 400 mg cohorts: similar
CSF-1; ARRY-382 300 mg QD with pembrolizumab
  average maximum increase in CSF-1 levels from baseline: 5.4 fold
CSF-1; Part A
  relation of increases from baseline in CSF-1 levels to ARRY-382 exposure: correlated with increasing ARRY-382 exposure
Advanced solid tumors
  patients with stable disease per irRC: 3 patients
  stable disease per RECIST version 1.1, share of patients: 33%
  stable disease per irRC, share of patients: 50%
[2]; QD
  doses with biological activity: greater than or equal to 200 mg
[2]; once daily (QD)
  maximum tolerated dose (MTD): 400 mg
[3]; ARRY-382 200 mg QD + pembrolizumab, six patients
  dose-limiting toxicities in the 200 mg cohort: No DTLs occurred; also recorded: No DLTs occurred
[3]; ARRY-382 200 mg cohort, onset in cycle 4
  patients who discontinued because of an AE of pneumonitis: One
[3]; ARRY-382 300 mg cohort
  patients with dose reductions in the 300 mg cohort: 3 patients
[3]; ARRY-382 400 mg QD + pembrolizumab
  patients who experienced a DLT in the 400 mg cohort: 2 of 7 and Two of seven
[3]; Part A
  course of AST and CK elevations after interruption of ARRY-382: resolved in all patients; also recorded: reversible
  grade 4 events of increased blood CK: one
  patients with AST elevation who required dose reduction: 2 patients
  patients with CK elevation who required dose reduction: 3 patients
  patients with immune-related adverse events (investigator-classified): 5 patients
[3]; Part A, 19 patients, ARRY-382 + pembrolizumab
  most common adverse events of any grade: increased laboratory values (AST, CK, ALT, alkaline phosphatase (ALP), lipase, amylase), fatigue, pyrexia, and nausea
[3]; [4]
  most common grade 3/4 events (>10%): increased AST, increased CK, rash, lipase increased, increased ALP, increased ALT, and anemia
  patients with grade 3 AST elevation: 5 patients
[3]; Part A, cause disease progression in all cases
  on-study deaths (on treatment or within 30 days of last dose): 3
[3]; QD continuously, in combination with pembrolizumab 2 mg/kg IV every 3 weeks
  recommended phase 2 dose (RP2D): 300 mg
[3]; regardless of relationship to study drug
  immune-related adverse events, manageability: observed and were manageable
